Data reported in US11819510B2, “Food composition for ameliorating cerebrovascular diseases containing 2′- fucosyllactose and pharmaceutical composition for preventing or treating cerebrovascular diseases containing 2′-fucosyllactose” (Advanced Protein Technologies Corp., priority 2020, dated 2023).

Key:
[1] = test system: carotid artery thrombosis; assay: FeCl3-induced carotid artery thrombosis mouse model, blood flow measurement; assay type: in vivo; conditions: 7 days, FeCl3 (10%) mouse model, vehicle 7.47 minutes
Protocol: Male C57BL/6 mice (6-8 weeks old) used in the experiment were purchased from Dooyeol Biotech Co., Ltd., were acclimatized for a predetermined period at 23±1° C. and 56% relative humidity while a general diet was provided thereto for 1 week, and were then used for the experiment. In the following, animal experiments were performed in accordance with the guide for the animal study protocols approved by the Korea Institute of Oriental Medicine Institutional Animal Care and Use Committee (approval number: 20-058). FeCl3 (10%) was used to establish a thrombosis-induced mouse model. Mice were orally administered with 2′-fucosyllactose (500, 1,000 mg/kg BW), 3-fucosyllactose (1,000 mg/kg BW), or ASA (100 mg/kg BW) for 7 days. 2 hours after the last administration, the mice were anesthetized with 2% isoflurane, the left carotid artery was isolated from each mouse, and filter paper (2 mm in diameter) soaked with FeCl3 (10%) was placed on the carotid artery for 2 minutes to induce thrombosis. Blood flow was measured using a blood flow meter (AD meter).

[2] = test system: collagen-induced aggregation of mouse platelets; assay: Platelet aggregation induced by collagen; assay type: cell-based; conditions: collagen 0.5 μg/ml; 2′-fucosyllactose 300 to 1,000 μM, FOS and 3-fucosyllactose 1,000 μM; pretreated 37° C. 15 minutes; vs vehicle; FIG. 2B
[3] = test system: CRP-induced aggregation of mouse platelets; assay: Platelet aggregation induced by CRP; assay type: cell-based; conditions: CRP 0.15 μg/ml; 2′-fucosyllactose 300 to 1,000 μM, FOS and 3-fucosyllactose 1,000 μM; pretreated 37° C. 15 minutes; vs vehicle; FIG. 2A
HepG2 cells = assay: HMO cytotoxicity test (CCK assay); assay type: cell-based; conditions: 24 hours treatment, FIG. 4
Protocol: In this experimental example, the cytotoxicity of HMOs was evaluated by CCK assay (Oh, Y. C.; Jeong, Y. H.; Pak, M. E.; Go, Y., Banhasasim-Tang Attenuates Lipopolysaccharide-Induced Cognitive Impairment by Suppressing Neuroinflammation in Mice. Nutrients 2020, 12, (7)). No protocol for measuring cytotoxicity to platelets has been established, so HepG2 cells were pretreated with an HMO (2′-fucosyllactose or 3-fucosyllactose) in a concentration-dependent manner. After 24 hours, each well was treated with a cell-counting kit solution (Dojindo Molecular Technologies, Inc.), and further incubated for 1 hour, and then absorbance was measured at a wavelength of 450 nm using a microplate reader.

[4] = test system: thromboxane A2 analogue-induced aggregation of mouse platelets; assay: Platelet aggregation induced by thromboxane A2 analogue (U46619); assay type: cell-based; conditions: thromboxane A2 analogue 3 μM; pretreated 37° C. 15 minutes; vs vehicle; FIG. 2D
Protocol: (§1) Platelets were collected from the abdominal vein of mice (6-8 weeks of age) using a syringe pretreated with a citrate-dextrose solution (ACD, Sigma). After centrifugation at 300×g at room temperature for 20 minutes to obtain platelet-rich plasma (PRP), 0.5 μM PGE1 was added to the plasma isolated from red blood cells, followed by re-centrifugation at 700×g for 4 minutes. The precipitated platelets were washed with HEPES-Tyrode buffer (5 mM HEPES/NaOH, pH 7.3, 5 mM glucose, 136 mM NaCl, 12 mM NaHCO3, 2.7 mM KCl) containing 10% ACD, followed by centrifugation at 700×g for 5 min. The precipitated platelets were adjusted to a concentration of 3×10^8 cells/mL in HEPES-Tyrode buffer and used in this experiment.
(§2) Mouse platelets immersed in HEPES-Tyrode buffer at a concentration of 3×10^8 cells/mL were pre-treated with a vehicle (distilled water), 1,000 μM FOS, 3′-fucosyllactose, and various concentrations (300 to 1,000 μM) of 2′-fucosyllactose at 37° C. for 15 minutes, and were then activated awith CRP, collagen, thrombin, and thromboxane A2 analogues in a platelet aggregation system. Platelet aggregation was induced at a rate of 1,000 rpm at 37° C. and then measured in a platelet aggregation meter (Chrono-log Corp, Havertown, PA). […]

platelet αIIbβ3 integrin = assay: Flow cytometry of platelet αIIbβ3 integrin activation after CRP activation; assay type: cell-based, mouse; conditions: 300 to 1,000 μM, concentration-dependent; 0.15 μg/ml CRP 5 minutes; vs vehicle; FIG. 3B
Protocol: as §1
(§3) The activity of each of platelet P-selectin and αIIbβ3, which are known biomarkers of platelet activity, was measured using a flow cytometer (Gallios, Beckman Coulter). Mouse platelets were pretreated with a vehicle (distilled water), 1,000 μM FOS and 3-fucosyllactose, and various concentrations (300 to 1,000 μM) of 2′-fucosyllactose at 37° C. for 15 minutes, and were then activated with 0.15 ug/ml CRP at 37° C. for 5 minutes, after which the activity thereof was measured using P-selectin and αIIbβ3 antibodies.
(§4) The mechanism of inhibition of platelet activation by HMOs was determined. […]

[5] = test system: thrombin-induced aggregation of mouse platelets; assay: Platelet aggregation induced by thrombin; assay type: cell-based; conditions: thrombin 0.025 U/ml; pretreated 37° C. 15 minutes; vs vehicle; FIG. 2C
Protocol: as §1, §2

[6] = test system: P-selectin of mouse platelet α-granule; assay: Flow cytometry of platelet P-selectin exposure after CRP activation; assay type: cell-based; conditions: 300 to 1,000 μM, concentration-dependent; 0.15 μg/ml CRP 5 minutes; vs vehicle; FIG. 3A
Protocol: as §1, §3, §4

3-fucosyllactose [reference compound]
average carotid artery occlusion time ([1]; 1,000 mg/kg BW oral): 8.18 min
inhibition of platelet aggregation induced by collagen [2]: not significantly inhibited
inhibition of platelet aggregation induced by CRP [3]: not significantly inhibited
cell death of HepG2 (cell viability, CCK assay) (HepG2 cells): not observed

fructooligosaccharide [FOS]
inhibition of platelet aggregation induced by collagen [2]: not significantly inhibited
inhibition of platelet aggregation induced by CRP [3]: not significantly inhibited

CC(=O)Oc1ccccc1C(=O)O [aspirin, reference compound]
carotid artery occlusion time ([1]; 100 mg/kg BW oral, positive control): 18.05 min

2′-fucosyllactose
average carotid artery occlusion time ([1]; 500 mg/kg BW oral): 11.79 min
average carotid artery occlusion time ([1]; 1,000 mg/kg BW oral): 14.52 min
inhibition of platelet aggregation induced by thromboxane A2 analogue [4]: did not exhibit an inhibitory effect
inhibition of activation of platelet αIIbβ3 integrin (platelet αIIbβ3 integrin): significantly inhibit
inhibition of platelet aggregation induced by thrombin [5]: did not exhibit an inhibitory effect
inhibition of activation of P-selectin of mouse platelet α-granule [6]: significantly inhibit
inhibition of platelet aggregation induced by collagen [2]: significantly inhibited
inhibition of platelet aggregation induced by CRP [3]: significantly inhibited
cell death of HepG2 (cell viability, CCK assay) (HepG2 cells): not observed
